# Article PMC10443802, “Targeting a xenobiotic transporter to ameliorate vincristine-induced sensory neuropathy” (JCI Insight, 2023)
# “And” between values parts separate entries of the source, which are not always exact repeats. Equal entries are not always repeated.
# Tests used:
# hOATP1B3 = biological target: T1, hOATP1B3 (Homo sapiens, UniProt Q9NPD5); assay: Inhibition of EβG uptake in HEK293 cells overexpressing hOATP1B3; conditions: HEK293 hOATP1B3; inhibitor 10 μM, 15-min pre-incubation
# T1 sequence (Q9NPD5 1-702): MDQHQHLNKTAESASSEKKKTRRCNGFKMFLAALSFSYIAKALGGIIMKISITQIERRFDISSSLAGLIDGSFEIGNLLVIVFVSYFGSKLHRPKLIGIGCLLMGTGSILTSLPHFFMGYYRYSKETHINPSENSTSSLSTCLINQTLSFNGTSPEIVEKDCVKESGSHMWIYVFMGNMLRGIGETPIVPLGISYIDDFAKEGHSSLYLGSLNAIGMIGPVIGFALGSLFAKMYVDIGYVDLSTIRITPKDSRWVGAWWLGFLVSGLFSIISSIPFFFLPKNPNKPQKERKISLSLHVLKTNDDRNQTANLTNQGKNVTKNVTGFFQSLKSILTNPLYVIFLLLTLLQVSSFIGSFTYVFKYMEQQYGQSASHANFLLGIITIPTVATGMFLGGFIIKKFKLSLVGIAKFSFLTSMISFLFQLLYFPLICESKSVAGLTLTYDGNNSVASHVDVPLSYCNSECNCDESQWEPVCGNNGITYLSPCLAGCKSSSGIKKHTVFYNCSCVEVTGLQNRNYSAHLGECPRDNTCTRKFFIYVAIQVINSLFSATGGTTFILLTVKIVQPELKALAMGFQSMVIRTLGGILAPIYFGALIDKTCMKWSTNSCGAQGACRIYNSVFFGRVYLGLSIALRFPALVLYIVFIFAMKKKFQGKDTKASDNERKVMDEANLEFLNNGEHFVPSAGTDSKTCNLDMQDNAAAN
# mice [1] = system: mice
# DRG neurons = assay: DRG morphology and morphometry (neuron cell area); type: in vivo, mouse
# LYN kinase = biological target: T2, LYN kinase (Mus musculus, UniProt P25911); assay: Phosphorylation of LYN kinase in DRG of mice (phospho-LYN/total LYN); type: in vivo
# T2 construct: from tissue
# T2 sequence (P25911 whole entry): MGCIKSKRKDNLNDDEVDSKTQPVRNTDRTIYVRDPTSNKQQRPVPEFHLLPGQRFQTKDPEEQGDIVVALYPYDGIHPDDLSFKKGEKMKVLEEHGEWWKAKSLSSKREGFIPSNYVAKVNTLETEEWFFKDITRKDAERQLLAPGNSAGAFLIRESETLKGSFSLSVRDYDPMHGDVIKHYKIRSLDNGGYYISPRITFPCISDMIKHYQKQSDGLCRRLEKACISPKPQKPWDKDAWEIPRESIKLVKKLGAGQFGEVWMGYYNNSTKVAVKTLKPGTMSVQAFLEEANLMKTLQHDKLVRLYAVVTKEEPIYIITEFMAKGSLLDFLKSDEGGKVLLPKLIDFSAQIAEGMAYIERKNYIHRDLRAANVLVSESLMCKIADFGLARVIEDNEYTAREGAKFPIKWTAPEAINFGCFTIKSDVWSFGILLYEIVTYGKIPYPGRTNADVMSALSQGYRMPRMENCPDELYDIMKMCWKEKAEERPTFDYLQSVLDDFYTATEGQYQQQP
# Procedure: mg/kg; p.o.) wild-type mice, using specific antibodies for phospho-LYN and total LYN (n = 3 per group).
# (C) Mechanical allodynia in wild-type mice and LYN-deficient [LYN(-/-)] mice 24 h after a single dose of
# Data presented represent the mean (bars) ± SEM (error
# bars), and paw sensitivity is expressed as a percentage over baseline values. Statistical analysis was […]
# L1210 = conditions: vincristine 1 μM, 30 min, nilotinib 10 μM
# Text: (A) Gene expression of the OATP1B2 gene in L1210 and P388D1 murine leukemia cells
# normalized to total protein levels. All data presented represent the mean (bars) ± SEM (error bars).
# mice [2] = assay: Thermal hyperalgesia, Hargreaves test (paw withdrawal latency)
# [3] = Vincristine accumulation in DRG and liver (tissue to plasma AUC ratio)
# Procedure: injection at a dose of 1 mg/kg. Whole blood samples were collected 0.08, 0.25, 0.5, 1, and 4 h, and livers were collected at the final time point.
# specimens were stored at -80°C until further processing.
# stainless steel bead (Qiagen) and processed for 4 min at 40 Hz. Finally, the beads were removed, and the homogenized samples were stored at -80°C until analysis by LC-MS/MS.
# Pharmacokinetic parameters were calculated by non -compartmental analysis using Phoenix WinNonlin version 8.0 (Certara). Peak plasma concentration (C max) was determined by visual inspection of the data from the concentration-time curves. The linear trapezoidal rule was used to obtain the area under the plasma concentration-time curve (AUC), and drug levels in tissues were corrected for
# Quantiva triple quadrupole mass spectrometer from Thermo Fisher Scientific was used for LC-MS/MS
# analysis. An Accucore aQ column (150 × 2.1 mm, dp = 2.6 μm, Thermo Fisher Scientific) was protected
# volume was 5.0 μL. The temperature of the autosampler rack was 4°C, and the temperature of the
# column was maintained at 50°C. Mobile phase A consisted of water with 0.1% (v/v) formic acid and
# mobile phase B consisted of acetonitrile: methanol (1:1) with 0.1% (v/v) formic acid. The total run time […]
# Precursor molecular ions and product ions were recorded for confirmation and
# quantification was 5 ng/mL. […]
# mice [4] = assay: Nerve conduction studies (sciatic/digital and caudal nerve action potential amplitude and conduction velocity)
# hASBT = hASBT (Homo sapiens, UniProt Q12908); assay: Vincristine uptake screen, HeLa cells overexpressing hASBT; type: in vitro ADME
# hASBT, sequence (Q12908 whole entry): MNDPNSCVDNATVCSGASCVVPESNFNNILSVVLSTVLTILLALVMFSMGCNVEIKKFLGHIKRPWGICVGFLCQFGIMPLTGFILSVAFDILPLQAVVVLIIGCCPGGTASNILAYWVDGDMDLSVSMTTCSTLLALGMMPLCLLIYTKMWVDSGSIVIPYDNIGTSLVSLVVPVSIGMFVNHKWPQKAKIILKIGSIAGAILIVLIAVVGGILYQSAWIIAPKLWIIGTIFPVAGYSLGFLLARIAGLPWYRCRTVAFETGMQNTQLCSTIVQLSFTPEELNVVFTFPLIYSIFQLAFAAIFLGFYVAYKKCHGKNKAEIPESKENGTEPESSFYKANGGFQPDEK
# Procedure: Relative uptake is expressed as percentage change compared with empty vector controls (n = 4–14 per group). […] Human OATP1B1 and OATP1B3 transporter–overexpressed cells were used as positive controls; empty vector controls were used as the negative control. […] Mechanical allodynia (C), thermal hyperalgesia (D), and sciatic nerve maximal action potential amplitudes (E) are expressed as percentage change relative to baseline values (n = 6–8 per group). Statistical analysis was performed using a 2-way ANOVA with Bonferroni’s post hoc test. **P < 0.01, ***P < 0.001, ****P < 0.0001, compared with baseline values. […] Data are shown as mean ± SEM. […]
# transfected with transporters of interest, including hOAT1, hOAT3, hOAT4, hOATP1A2, hOATP3A1, hOATP4A1, hOATP5A1, hOATP1C1, hOATP1B1, hOATP1B3, hOATP2B1, hOCT1, hOCT2, hOCTN1, hOCTN2, hASBT, hNTCP, hNPT1, hMATE1, hOSTα/β, hPEPT1, hPEPT2, rOatp1a1, rOatp1a4, rOatp1a5, rOatp1b2, rNtcp, rAsbt, rOat1, and rOct1. Cells were transfected with expression plasmid or vector control lacking any insert using Lipofectin reagent (Invitrogen). […] The cellular radioactivity was quantified by liquid scintillation counting as described above. […]
# Samples were analyzed using real-time quantitative PCR and Taqman Probes (Applied Biosystems). The relative gene expression was determined using the ΔΔCt method, and normalized to the mouse or human housekeeping gene, GAPDH. […]
# [5] = WT mice, nilotinib 100 mg/kg p.o. 30 min before each vincristine 1 mg/kg, 4 weeks
# [6] = OATP1B2(-/-) mice + Nilotinib, Baseline
# [7] = OATP1B2(-/-) mice + Nilotinib, Week 4
# [8] = Wild-type mice + Nilotinib, Baseline
# [9] = Wild-type mice + Nilotinib, Week 4
# [10] = KO (OATP1B2-/-) mice, vincristine 1 mg/kg weekly i.p. + vehicle pretreatment, 4 weeks
# [11] = OATP1B2(-/-) mice, vincristine 1 mg/kg weekly, Week 4
compound,measurement,setting,value
"Cc1cn(-c2cc(NC(=O)c3ccc(C)c(Nc4nccc(-c5cccnc5)n4)c3)cc(C(F)(F)F)c2)cn1 [Nilotinib, nilotinib]",EβG uptake (% of vehicle),hOATP1B3,3.038 % of vehicle and 2.924 % of vehicle and 2.718 % of vehicle
same,"Protection against vincristine-associated changes in mechanical allodynia, thermal hyperalgesia and sciatic nerve maximal AMP",mice [1]; 100 mg/kg orally 30 minutes before each of 4 vincristine doses of 1 mg/kg,effectively protected against treatment-associated changes
same,Cell area changes (%Δ from baseline),DRG neurons; OATP1B2(-/-) mice + Nilotinib,0.695% and -1.012% and -0.86%
same,Cell area changes (%Δ from baseline),DRG neurons; Wild-type mice + Nilotinib,0.351% and -0.994% and -0.034%
same,Prevention of vincristine-induced reduction in cell size of DRG neurons,DRG neurons; nilotinib 100 mg/kg p.o. pretreatment,could be prevented by pretreatment with nilotinib
same,DRG Phosho-LYN/Total LYN (% of Untreated),LYN kinase; DRG of mice,47.9691 % of Untreated and 52.4315 % of Untreated and 37.2669 % of Untreated
same,Phosphorylated-LYN in DRG neurons,"LYN kinase; nilotinib 100 mg/kg p.o., wild-type mice",significant inhibition of phosphorylated-LYN in DRG neurons
same,Influence on uptake of vincristine,L1210,did not influence the uptake of vincristine
same,Paw withdrawal latency (%Δ from baseline),"mice [2]; KO (OATP1B2-/-) mice, nilotinib 100 mg/kg p.o. 30 min before each vincristine 1 mg/kg, 4 weeks",81.1 %Δ from baseline and 88.2 %Δ from baseline and 119.5 %Δ from baseline and 100.4 %Δ from baseline and 93.8 %Δ from baseline and 69.5 %Δ from baseline
same,Paw withdrawal latency (%Δ from baseline),mice [2]; [5],137.5 %Δ from baseline and 110.5 %Δ from baseline and 107.4 %Δ from baseline and 126 %Δ from baseline and 95.3 %Δ from baseline and 92.7 %Δ from baseline
same,Influence of pretreatment on accumulation of vincristine in whole DRG samples,"[3]; nilotinib 100 mg/kg, vincristine 1 mg/kg",significantly diminished by nilotinib
same,Caudal nerve amplitude,mice [4]; [6],95.6% and 93.7% and 108.6% and 106% and 98.1%
same,Caudal nerve velocity,mice [4]; [6],102.8% and 100.9% and 101.1% and 98% and 97.3%
same,Sciatic nerve amplitude,mice [4]; [6],114.4% and 121.2% and 118.7% and 82.8% and 93.6% and 69.3%
same,Sciatic nerve velocity,mice [4]; [6],95.7% and 106.4% and 97.8% and 107.3% and 98.7% and 94.1%
same,Caudal nerve amplitude,mice [4]; [7],89.3% and 94% and 95.6% and 104.4% and 86.9%
same,Caudal nerve velocity,mice [4]; [7],97.1% and 98.5% and 95% and 100.3% and 98.1% and 98.7%
same,Sciatic nerve velocity,mice [4]; [7],92.3% and 108.6% and 101.5% and 100.5% and 93.7% and 102.8%
same,Sciatic nerve amplitude,mice [4]; [5],108.6 %Δ from baseline and 88.8 %Δ from baseline and 77.9 %Δ from baseline and 89.5 %Δ from baseline and 98.8 %Δ from baseline and 89.1 %Δ from baseline
same,Caudal nerve amplitude,mice [4]; [8],120.6% and 88.2% and 115.9% and 89.2% and 91.2% and 94.8%
same,Caudal nerve velocity,mice [4]; [8],98.2% and 90.4% and 108% and 104.2% and 102% and 97.3%
same,Sciatic nerve amplitude,mice [4]; [8],97.8% and 93% and 117% and 84.6% and 113.5% and 94%
same,Sciatic nerve velocity,mice [4]; [8],102.2% and 108.4% and 96.7% and 95.6% and 94.8%
same,Caudal nerve amplitude,mice [4]; [9],63.6% and 79.9% and 91.5% and 110.8% and 56.5% and 79.7%
same,Caudal nerve velocity,mice [4]; [9],92.7% and 93.3% and 98.1% and 103.4% and 110.3% and 95.5%
same,Sciatic nerve amplitude,mice [4]; [9],89.1% and 108.6% and 88.8% and 77.9% and 89.5% and 98.8%
same,Sciatic nerve velocity,mice [4]; [9],101.8% and 112.7% and 95.6% and 97.9% and 93.4% and 98.9%
"CC[C@]1(O)C[C@H]2CN(CCc3c([nH]c4ccccc34)[C@@](C(=O)OC)(c3cc4c(cc3OC)N(C=O)[C@H]3[C@@](O)(C(=O)OC)[C@H](OC(C)=O)[C@]5(CC)C=CCN6CC[C@]43[C@@H]65)C2)C1 [Vincristine, vincristine]",Vincristine uptake (% of vector control),hASBT,91.00 % of vector control and 82.00 % of vector control and 85.00 % of vector control and 81.00 % of vector control and 114.00 % of vector control and 83.00 % of vector control and 69.00 % of vector control and 101.00 % of vector control
same,Protection against treatment-related mechanical allodynia by OATP1B2 deficiency,"mice [1]; mouse, in vivo",protection against treatment-related mechanical allodynia was only observed
same,Cell size of DRG neurons,"DRG neurons; WT mice, vincristine 1 mg/kg weekly, 4 weeks",reduction in cell size of DRG neurons
same,Paw withdrawal latency (%Δ from baseline),mice [2]; [10],115.4 %Δ from baseline and 102.8 %Δ from baseline and 99.5 %Δ from baseline and 93.2 %Δ from baseline and 105.4 %Δ from baseline and 88 %Δ from baseline and 77.4 %Δ from baseline
same,Paw withdrawal latency (%Δ from baseline),mice [2]; [11],94.3 %Δ from baseline and 92.7 %Δ from baseline and 101.2 %Δ from baseline and 102.2 %Δ from baseline and 111.0 %Δ from baseline and 84.6 %Δ from baseline and 112.1 %Δ from baseline
same,Paw withdrawal latency (%Δ from baseline),"mice [2]; WT mice, vincristine 1 mg/kg weekly i.p. + vehicle pretreatment, 4 weeks",66.8 %Δ from baseline and 70.6 %Δ from baseline and 94.2 %Δ from baseline and 54.6 %Δ from baseline and 68.3 %Δ from baseline and 64.2 %Δ from baseline and 82.5 %Δ from baseline
same,Paw withdrawal latency (%Δ from baseline),"mice [2]; Wild-type mice, vincristine 1 mg/kg weekly, Week 4",61.8 %Δ from baseline and 39.1 %Δ from baseline and 56.0 %Δ from baseline and 42.8 %Δ from baseline and 56.3 %Δ from baseline and 55.6 %Δ from baseline
same,Uptake of vincristine in liver and whole DRG samples,"[3]; OATP1B2-deficient vs WT mice, LC/MS/MS or MALDI-MS imaging",decreased uptake of vincristine
same,Sciatic nerve amplitude,mice [4]; [10],107.5 %Δ from baseline and 81.9 %Δ from baseline and 90.9 %Δ from baseline and 97.4 %Δ from baseline and 87.3 %Δ from baseline and 91.9 %Δ from baseline and 109.9 %Δ from baseline
same,Sciatic nerve amplitude,mice [4]; [11],90.9 %Δ from baseline and 97.4 %Δ from baseline and 87.3 %Δ from baseline and 91.9 %Δ from baseline and 109.9 %Δ from baseline and 107.5 %Δ from baseline and 81.9 %Δ from baseline
